Consider 14 compounds from BindingDB's records for doi:10.1016/s0960-894x(99)00012-8 (Nippon Steel, 1999).

Test [1] is described as follows: Inhibitory activity against porcine pancreatic elastase (PPE).
The nature of test [2]: Inhibitory activity against porcine pancreatic trypsin (TRP).
Test [3] is described as follows: Inhibitory activity against bovine pancreatic alpha-chymotrypsin (alpha-CT).
Test [4] in a line: Inhibitory activity against porcine pancreatic trypsin (TRP). This is another data set of the same source.

Consider `CCCCC(NC(=O)c1ccccc1)C(C)(C)C(=O)OC(=O)C(C)(C)C(CCCC)NC(=O)c1ccccc1` (centres undefined) [1,1-dimethyl-2-phenylcarboxamidoheptanoic anhydride], for which the results for the IC50 in test [1], in test [2] and in test [3] were 34 nM, 2900 nM and 5.3 nM, respectively.
`CCCC(NC(=O)c1ccccc1)C(C)(C)C(=O)OC(=O)C(C)(C)C(CCC)NC(=O)c1ccccc1` (centres undefined) [1,1-dimethyl-2-phenylcarboxamidohexanoic anhydride]: the concentration for half-maximal inhibition (IC50) turned out to be 8800 nM in test [2] and 49 nM in test [3].
In the case of `CCCCCCC(NC(=O)c1ccccc1)C(C)(C)C(=O)OC(=O)C(C)(C)C(CCCCCC)NC(=O)c1ccccc1` (centres undefined) [1,1-dimethyl-2-phenylcarboxamidononanoic anhydride], the IC50 amounted to 180 nM in test [1], 3300 nM in test [2] and 44 nM in test [3].
For the compound `CCCCCC(NC(=O)c1ccccc1)C(C)(C)C(=O)OC(=O)C(C)(C)C(CCCCC)NC(=O)c1ccccc1` (centres undefined) [1,1-dimethyl-2-phenylcarboxamidooctanoic anhydride], the IC50 came out at 61 nM in test [1], 3900 nM in test [2] and 31 nM in test [3].
In the case of `CCC(NC(=O)c1ccccc1)C(C)(C)C(=O)OC(=O)C(C)(C)C(CC)NC(=O)c1ccccc1` (centres undefined) [1,1-dimethyl-2-phenylcarboxamidopentanoic anhydride], the half-maximal inhibitory concentration (IC50) in test [1] turned out to be 210 nM; in test [2] it was 2200 nM; in test [3], 72 nM.
As to `CC(C)(CNC(=O)c1ccccc1)C(=O)OC(=O)C(C)(C)CNC(=O)c1ccccc1` [1,1-dimethyl-2-phenylcarboxamidopropanoic anhydride], the IC50 in test [1] worked out at 2600 nM; in test [2], 990 nM; in test [3], 140 nM.
Consider `CCCCCC(NC(=O)CCC)C(C)(C)C(=O)OC(=O)C(C)(C)C(CCCCC)NC(=O)CCC` (centres undefined) [1,1-dimethyl-2-propylcarboxamidooctanoic anhydride], for which the figures for the IC50 in test [1], in test [2] and in test [3] were 55 nM, 18000 nM and 810 nM, respectively.
Turning to `CC(C)(C(=O)OC(=O)C(C)(C)C(CCc1ccccc1)NC(=O)c1ccccc1)C(CCc1ccccc1)NC(=O)c1ccccc1` (centres undefined) [1,1-dimethyl-4-phenyl-2-phenylcarboxamidopentanoic anhydride], the IC50 in test [1] was 64 nM; in test [2], 2700 nM; in test [3] it was 18 nM.
`CCCC(=O)NC(CCc1ccccc1)C(C)(C)C(=O)OC(=O)C(C)(C)C(CCc1ccccc1)NC(=O)CCC` (centres undefined) [1,1-dimethyl-4-phenyl-2-propylcarboxamidopentanoic anhydride] registered an IC50 in test [2] of 1200 nM.
For the compound `CC(C)(C(=O)OC(=O)C(C)(C)C(NC(=O)c1ccc(C#N)cc1)c1ccccc1Cl)C(NC(=O)c1ccc(C#N)cc1)c1ccccc1Cl` (centres undefined) [2-(2-chlorophenyl)-2-(4-cyanophenylcarboxamido)-1,1-dimethylpropanoic anhydride], the values for the IC50 in test [1], in test [4] and in test [3] were 1100 nM, 8200 nM and 250 nM, respectively.
As for `Cc1ccccc1C(NC(=O)c1ccc(C#N)cc1)C(C)(C)C(=O)OC(=O)C(C)(C)C(NC(=O)c1ccc(C#N)cc1)c1ccccc1C` (centres undefined) [2-(4-cyanophenylcarboxamido)-1,1-dimethyl-2-(2-methylphenyl)propanoic anhydride], the concentration for half-maximal inhibition (IC50) in test [1] was found to be 2100 nM; in test [4] it was 18000 nM; in test [3] it was 190 nM.
As for `CC(C)(C(=O)OC(=O)C(C)(C)C(NC(=O)c1ccc(C#N)cc1)c1ccccc1)C(NC(=O)c1ccc(C#N)cc1)c1ccccc1` (centres undefined) [2-(4-cyanophenylcarboxamido)-1,1-dimethyl-2-phenylpropanoic anhydride], the IC50 in test [1] came to 210 nM; in test [4], 1800 nM; in test [3], 15 nM.
As to `CC(C)(C(=O)OC(=O)C(C)(C)C(NC(=O)c1ccc(C#N)cc1)C1CC=CCC1)C(NC(=O)c1ccc(C#N)cc1)C1CC=CCC1` (centres undefined) [2-(4-cyanophenylcarboxamido)-2-cyclohex-3-enyl-1,1-dimethylpropanoic anhydride], the IC50 was 180 nM in test [1], 1600 nM in test [2] and 220 nM in test [3].
On to `CC(C)(C(=O)OC(=O)C(C)(C)C(CCc1ccccc1)NC(=O)c1ccc(C#N)cc1)C(CCc1ccccc1)NC(=O)c1ccc(C#N)cc1` (centres undefined) [[2,2-dimethyl-3-(N-(4-cyanobenzoyl)aminoi)-5-phenylpentanoic anhydride]], for which the values for the IC50 in test [1], in test [4] and in test [3] were 36 nM, 300 nM and 2.1 nM, respectively.
